Our source for the IC50 values is BindingDB's records for doi:10.1016/j.bmcl.2012.12.050 (Actelion Pharmaceuticals, 2013).

This assay can be described thus: Antagonist activity against CRTh2 receptor in human eosinophils assessed as cell shape change.

In general, IC50 refers to the concentration that inhibits the measured activity by half. For `N#C/C(=C\c1cn(CC(=O)O)c2ccccc12)C(=O)N1CCCc2ccccc21`, the half-maximal inhibitory concentration (IC50) was determined as 160 nM.
